Experimental data reported in PMC10654779, “Development of a fibroblast activation protein-targeted PET/NIR dual-modality probe and its application in head and neck cancer” (Frontiers in Bioengineering and Biotechnology, 2023).

What was measured:
U87MG xenografts [1] = test: NIR fluorescence imaging of U87MG tumor-bearing mice; type: in vivo; conditions: 0.5-72 h post-injection, n = 3
Method: FI was performed using a small animal FI system with ICG mode: The NIR filter set (Excitation: 740–790 nm; Emission: 810–860 nm) was used for ICG fluorescence. The fluorescence intensity was calculated by the mean fluorescence intensity (MFI).
To evaluate the optimal imaging time window, NIR fluorescence images of U87MG tumor-bearing mice were collected at different time points (0.5, 1, 2, 24, 48, and 72 h) post-injection of FAP-2286-ICG (3.16 μg, 1.37 nmol). Following in vivo FI, mice were euthanized, and their xenografts and major organs were harvested for in vitro FI analysis. The ROIs were drawn manually in the tumor and organs on the fluorescence image to account for the distribution of FAP-2286-ICG in the tissue. MFI levels from organs and the TBRs using tumor/muscle values were evaluated.

U87MG cells [2] = test: Cellular retention by fluorescence imaging; type: cell-based, human; conditions: 3 μM (based on ICG), 37 °C, 24 h incubation, n = 5
Method: (§1) For the cellular uptake study, U87MG cells (2×10^5 cells/well) were seeded in 24-well plates and incubated at 37°C for 24 h before the experiments (five replicate wells per group). After removing the medium and washing the cells with fresh medium, the cells in each well were treated with DMEM medium containing 0.74 MBq [^68Ga]Ga-FAP-2286-ICG at 37°C for 30, 60, and 120 min. After removing the medium, the cells were washed twice with cold PBS, lysed with NaOH (1 M) twice (0.5 mL/well), and collected. The bound activity was measured with a γ-counter. For the blocking study, a 100-fold excess of the non-radiolabeled precursor was added before treating the cells with [^68Ga]Ga-FAP-2286-ICG. Subsequent experimental procedure and condition were the same as the aforementioned cellular uptake assay. To further verify whether the introduction of ICG affected the targeting of the precursor, [^68Ga]Ga-FAP-2286 was incubated with U87MG cells for 2 h as a control group. Additionally, the retention effect of probe on the tumor was verified. Briefly, U87MG cells were incubated with DMEM medium containing approximately 3 μM (based on the content of ICG) FAP-2286-ICG or ICG at 37 °C for 2, 4, 8, and 24 h. After discarding the medium, the cells were washed three times with PBS and imaged using a small animal FI system with ICG mode to quantify the fluorescent signal.

[3] = human; no reference given; cited from earlier work
Description: Novel methodologies employing dual-labeled probes aid the surgeon by allowing for more streamlined preoperative planning via PET/CT or PET/MRI and accurate intraoperative navigation guidance.

[4] = Optical properties (UV/Vis absorbance and fluorescence emission spectra); type: physicochemical; conditions: 10 μM in PBS, diluted from 1 mM DMSO
Method: The ultraviolet absorption spectra of FAP-2286-ICG were collected using a UV/Vis spectrophotometer (DU-730, BeckMan Coulter). Fluorescence spectra were collected using a fluorescence spectrometer (FLS980, Edinburgh instruments). FAP-2286-ICG and ICG were dissolved in DMSO at a concentration of 1 mM before being diluted with PBS to a final concentration of 10 μΜ, respectively. The absorbance spectra were taken between 600 and 1100 nm. The emission spectra were recorded in the 790–860 nm range at an excitation wavelength of 770 nm. The concentration dependence of fluorescence intensity of FAP-2286-ICG was assessed with different concentrations of FAP-2286-ICG (0–100 μM). The fluorescent images were collected using a small animal fluorescence imaging system (VISQUE InVivo Smart-LF, Vieworks Co., Ltd) and analyzed using CleVue™ software (Vieworks Co., Ltd).

BALB/c mice = test: Toxicity study in BALB/c mice; type: in vivo
Method: The BALB/c mice were sacrificed and collected from the heart, liver, spleen, lung, and kidney to determine toxicity with hematoxylin and eosin (H&E) staining. The serum was collected to measure the levels of aspartate aminotransferase (AST), alanine aminotransferase (ALT), and blood urea nitrogen (UREA). Body weight was recorded every 5 days up to 20 days postinjection. The mice with intravenous injections of saline served as a control group.

[5] = type: physicochemical; conditions: pH 7.4
Method: The octanol-water partition coefficient of [^68Ga]Ga-FAP-2286-ICG was detected by mixing 10 μL of freshly prepared [^68Ga]Ga-FAP-2286-ICG with 490 μL of PBS (0.1 M, pH 7.4) and 500 μL of n-octanol in a centrifuge tube. The mixture was vortexed for 3 min and centrifuged at 3,000 × rpm for 5 min for layer separation. An aliquot of the aqueous and n-octanol layers was separately collected and measured by γ counter (GC-2101, PET Co., Ltd). Log p values were calculated using the formula: log P = log(total counts in octanol/total counts in PBS).

in vitro = in vitro ADME
Method: The radiochemical purity (RCP) of [^68Ga]Ga-FAP-2286-ICG was assessed using radio instant thin-layer chromatography (Radio-iTLC). Glass microfiber chromatography paper impregnated with a silica gel served as the stationary phase and methanol and 0.25 M sodium acetate (1:1, v/v) as the mobile phase.
The in vitro stability of [^68Ga]Ga-FAP-2286-ICG was assessed by co-culture with 0.01 M PBS and FBS at a concentration of 10% (w/w), respectively, and the mixtures were incubated at 37°C for 0.5, 1, and 2 h.

U87MG xenografts [6] = test: in vivo; type: in vivo, mice; conditions: for SUVmax of the tumor: U87MG tumor-bearing mice, 10 MBq (1 nmol) i.v.
Method: (§2) All animal studies were performed according to the protocols approved by the Animal Welfare Ethics Committee of Shanghai Fourth People’s Hospital. Six to eight-week-old female BALB/c nude mice were purchased from Beijing Vital River Laboratory Animal Technology Co., Ltd. To establish cell-derived xenograft (CDX) models, the mice were implanted subcutaneously in the flanks with 5 × 10^6 U87MG cells in PBS containing 50% Matrigel. HNSCC cell lines (FaDu, CAL27, and CNE2) were inoculated subcutaneously on the right flanks of nude mice. The diameter of each tumor was determined and documented every 2–3 days. When the tumor reached 300–400 mm^3, the mice were used for the imaging study. The U87MG tumor-bearing mice were used to study the in vivo targeting, biodistribution, and optimal FI time window of [^68Ga]Ga-FAP-2286-ICG. HNSCC tumor-bearing mice were used to evaluate the feasibility of [^68Ga]Ga-FAP-2286-ICG for tumor localization and guided surgical resection of HNSCC tumors.
(§3) PET/CT imaging was performed in U87MG tumor-bearing mice to assess the tumor-targeting efficiency and biodistribution of [^68Ga]Ga-FAP-2286-ICG in vivo. The mice were injected with 10 MBq (1 nmol) of [^68Ga]Ga-FAP-2286-ICG through the tail vein, and images were performed at 30, 60, and 90 min after injection. The blocking group was pre-injected with the 50-fold molar excess of non-radiolabeled precursor 1 h in advance.

in vivo = type: in vivo, mice; conditions: female, BALB/c nude, mouse, in vivo, iv, total radioactivity
Method: as §2, §3

U87MG cells [7] = test: Cellular uptake study (radioactivity, γ-counter); type: cell-based, human
Method: as §1

Row | NIR-I fluorescence emission peak ([4]; excitation 770 nm, 790-860 nm) [nm] | absorption peak ([4]; spectra 600-1100 nm) [nm] | SMILES | fluorescence signal in the tumor site (U87MG xenografts [1]) | fluorescent signal retained by cells (U87MG cells [2]) | clinically safe dose [3] [mg/kg] | acute toxicity (BALB/c mice; BALB/c mice, 3-week period, n = 3) | serum concentrations of AST, ALT and UREA versus control group (BALB/c mice; BALB/c mice, 3 weeks after injection, saline control, n = 3) | pathological abnormalities in major organs (H&E) (BALB/c mice; mouse, in vivo) | partition coefficient log P [5] | RCP after incubation in PBS (in vitro) | remaining at 2 h (in vitro; serum) [%] | SUVmax of the tumor, blocking group (U87MG xenografts [6]; 60 min p.i., 50-fold molar excess of non-radiolabeled precursor pre-injected 1 h in advance, n = 3) | SUVmax of the tumor (U87MG xenografts [6]; 30 min, n = 3) | SUVmax of the tumor (U87MG xenografts [6]; 90 min, n = 3) | route of elimination (PET/CT) (U87MG xenografts [6]; mouse, in vivo) | SUV (in vivo) [SUV] | cellular uptake (U87MG cells [7]; 0.74 MBq, 37°C, 60 min, five replicate wells) | cellular uptake, blocked (U87MG cells [7]; 60 min, 100-fold excess of non-radiolabeled precursor) | cellular uptake of [68Ga]Ga-FAP-2286-ICG compared to [68Ga]Ga-FAP-2286 (U87MG cells [7]; 2 h incubation, p = 0.1945)
1 | 808 | 779 | CC1(C)C(/C=C/C=C/C=C/C=C2\N(CCCCS(=O)(=O)O)c3ccc4ccccc4c3C2(C)C)=[N+](CCCCS(=O)(=O)[O-])c2ccc3ccccc3c21 [ICG, indocyanine green] | no fluorescence signals in the tumor site | 3.13×10^13 ± 2.21×10^12 p/sec/cm^2/sr/[μW/cm^2] | 5 | – | – | – | – | – | – | – | – | – | – | – | – | – | –
2 | – | – | CCCCCC(=O)N[C@H]1CSCc2cc(CSCCNC(=O)[C@H](CCCCNC(=O)CCCCCN3/C(=C/C=C/C=C/C=C/C4=[N+](CCCCS(=O)(=O)[O-])c5ccc6ccccc6c5C4(C)C)C(C)(C)c4c3ccc3ccccc43)NC(=O)CN3CCN(CC(=O)O)CCN(CC(=O)O)CCN(CC(=O)O)CC3)cc(c2)CSC[C@@H](C(=O)O)NC(=O)[C@H](Cc2ccccc2)NC(=O)[C@H](CCC(N)=O)NC(=O)[C@H]([C@@H](C)O)NC(=O)[C@@H]2CCCN2C(=O)[C@@H]2CCCN2C1=O [[^68Ga]Ga-FAP-2286-ICG, metal not drawn] | – | – | – | no evident signs of acute toxicity | did not exhibit significant changes | No significant pathological abnormalities | −1.20 ± 0.18 | greater than 85% | > 85 | 0.17 ± 0.01 | 0.57 ± 0.10 | 0.58 ± 0.23 | mainly eliminated through liver metabolism and kidney excretion | 0.18 ± 0.07 | 12.00% ± 1.73 %ID | 6.88% ± 0.37 %ID | no statistically significant difference
